Assay [1] is classed as in vivo, NIH/Swiss mice. The settings on record: 80 nmol/Kg; AUC240.
Protocol: Gavage (1.5g/kg) was given at t=0. Sample was taken at t=30 min.
The conditions of assay [2]: cited from earlier work; for EC(50): inhibition of gastric emptying, subcutaneous.

Like-named read-outs stand apart in the source and are kept apart here. Ends that are not written are not given here.

For `CC[C@H](C)[C@H](NC(=O)[C@H](CO)NC(=O)[C@H](Cc1ccc(O)cc1)NC(=O)[C@H](CC(=O)O)NC(=O)[C@H](CO)NC(=O)[C@@H](NC(=O)[C@H](Cc1ccccc1)NC(=O)[C@@H](NC(=O)CNC(=O)[C@H](CCC(=O)O)NC(=O)[C@@H](C)NC(=O)[C@@H](N)Cc1ccc(O)cc1)[C@@H](C)O)[C@@H](C)CC)C(=O)N[C@@H](C)C(=O)N[C@@H](CCSC)C(=O)N[C@@H](CC(=O)O)C(=O)N[C@@H](CCCCN)C(=O)N[C@H](C(=O)N[C@@H](Cc1c[nH]cn1)C(=O)N[C@@H](CCC(N)=O)C(=O)N[C@@H](CCC(N)=O)C(=O)N[C@@H](CC(=O)O)C(=O)N[C@@H](Cc1ccccc1)C(=O)N[C@H](C(=O)N[C@@H](CCC(N)=O)C(=O)N[C@@H](Cc1c[nH]c2ccccc12)C(=O)N[C@@H](CC(C)C)C(=O)N[C@@H](CC(C)C)C(=O)N[C@@H](C)C(=O)N[C@@H](CCC(N)=O)C(=O)N[C@@H](CCCCN)C(=O)N1CCC[C@H]1C(=O)N[C@@H](CO)C(=O)N[C@@H](CO)C(=O)NCC(=O)N[C@@H](C)C(=O)N1CCC[C@H]1C(=O)N1CCC[C@H]1C(=O)N1CCC[C@H]1C(=O)N[C@@H](CO)C(N)=O)C(C)C)[C@@H](C)CC` [0601 GIP48 46], the “Basal Glucose Lowering at 80 nmol/Kg” value in assay [1] was -6%, AUC2 40.
On the same count and under the same terms, in the case of `CC[C@H](C)[C@H](NC(=O)[C@H](CO)NC(=O)[C@H](Cc1ccc(O)cc1)NC(=O)[C@H](CC(=O)O)NC(=O)[C@H](CO)NC(=O)[C@@H](NC(=O)[C@H](Cc1ccccc1)NC(=O)[C@@H](NC(=O)CNC(=O)[C@H](CCC(=O)O)NC(=O)[C@@H](C)NC(=O)[C@@H](N)Cc1ccc(O)cc1)[C@@H](C)O)[C@@H](C)CC)C(=O)N[C@@H](C)C(=O)N[C@@H](CCSC)C(=O)N[C@@H](CC(=O)O)C(=O)N[C@@H](CCCCN)C(=O)N[C@H](C(=O)N[C@@H](Cc1c[nH]cn1)C(=O)N[C@@H](CCC(N)=O)C(=O)N[C@@H](CCC(N)=O)C(=O)N[C@@H](CC(=O)O)C(=O)N[C@@H](Cc1ccccc1)C(=O)N[C@H](C(=O)N[C@@H](CC(N)=O)C(=O)N[C@@H](Cc1c[nH]c2ccccc12)C(=O)N[C@@H](CC(C)C)C(=O)N[C@@H](CC(C)C)C(=O)N[C@@H](C)C(=O)N[C@@H](CCC(N)=O)C(=O)N[C@@H](CCCCN)C(=O)N1CCC[C@H]1C(=O)N[C@@H](CO)C(=O)N[C@@H](CO)C(=O)NCC(=O)N[C@@H](C)C(=O)N1CCC[C@H]1C(=O)NCC(=O)N1CCC[C@H]1C(=O)N[C@@H](CO)C(N)=O)C(C)C)[C@@H](C)CC` [0601 GIP49 52] it was -1, AUC2 40%; in that of `CC[C@H](C)[C@H](NC(=O)[C@H](CO)NC(=O)[C@H](Cc1ccc(O)cc1)NC(=O)[C@H](CC(=O)O)NC(=O)[C@H](CO)NC(=O)[C@@H](NC(=O)[C@H](Cc1ccccc1)NC(=O)[C@@H](NC(=O)CNC(=O)[C@H](CCC(=O)O)NC(=O)[C@@H](C)NC(=O)[C@@H](N)Cc1ccc(O)cc1)[C@@H](C)O)[C@@H](C)CC)C(=O)N[C@@H](C)C(=O)N[C@@H](CC(C)C)C(=O)N[C@@H](CC(=O)O)C(=O)N[C@@H](CCCCN)C(=O)N[C@H](C(=O)N[C@@H](CCCNC(=N)N)C(=O)N[C@@H](CCC(N)=O)C(=O)N[C@@H](CCC(N)=O)C(=O)N[C@@H](CCC(=O)O)C(=O)N[C@@H](Cc1ccccc1)C(=O)N[C@H](C(=O)N[C@@H](CC(N)=O)C(=O)N[C@@H](Cc1c[nH]c2ccccc12)C(=O)N[C@@H](CC(C)C)C(=O)N[C@@H](CC(C)C)C(=O)N[C@@H](C)C(=O)N[C@@H](CCC(N)=O)C(=O)N[C@@H](CCCCN)C(=O)N1CCC[C@H]1C(=O)N[C@@H](CCCCN)C(=O)N[C@@H](CCCCN)C(=O)N[C@H](C(=O)N[C@@H](CCCNC(=N)N)C(=O)N[C@@H](Cc1ccc(O)cc1)C(=O)N[C@@H](CO)C(N)=O)[C@@H](C)CC)C(C)C)[C@@H](C)CC` [0601GIP4539], -5%, AUC240.
The same measure, in the same setting: for `CC[C@H](C)[C@H](NC(=O)[C@H](CO)NC(=O)[C@H](Cc1ccc(O)cc1)NC(=O)[C@H](CC(=O)O)NC(=O)[C@H](CO)NC(=O)[C@@H](NC(=O)[C@H](Cc1ccccc1)NC(=O)[C@@H](NC(=O)CNC(=O)[C@H](CCC(=O)O)NC(=O)[C@@H](C)NC(=O)[C@@H](N)Cc1ccc(O)cc1)[C@@H](C)O)[C@@H](C)CC)C(=O)N[C@@H](C)C(=O)N[C@@H](CCSC)C(=O)N[C@@H](CC(=O)O)C(=O)N[C@@H](CCCCN)C(=O)N[C@H](C(=O)N[C@@H](Cc1c[nH]cn1)C(=O)N[C@@H](CCC(N)=O)C(=O)N[C@@H](CCC(N)=O)C(=O)N[C@@H](CC(=O)O)C(=O)N[C@@H](Cc1ccccc1)C(=O)N[C@H](C(=O)N[C@@H](CC(N)=O)C(=O)N[C@@H](Cc1c[nH]c2ccccc12)C(=O)N[C@@H](CC(C)C)C(=O)N[C@@H](CC(C)C)C(=O)N[C@@H](C)C(=O)N[C@@H](CCC(N)=O)C(=O)N[C@@H](CCCCN)C(=O)NCCC(=O)NCCC(=O)N1CCC[C@H]1C(=O)N[C@@H](CCCCN)C(=O)N[C@@H](CCCCN)C(=O)N[C@H](C(=O)N[C@@H](CCCNC(=N)N)C(=O)N[C@@H](Cc1ccc(O)cc1)C(=O)N[C@@H](CO)C(N)=O)[C@@H](C)CC)C(C)C)[C@@H](C)CC` [0601GIP4648] the value was -8%, AUC240; for `CC[C@H](C)[C@H](NC(=O)[C@H](CO)NC(=O)[C@H](Cc1ccc(O)cc1)NC(=O)[C@H](CC(=O)O)NC(=O)[C@H](CO)NC(=O)[C@@H](NC(=O)[C@H](Cc1ccccc1)NC(=O)[C@@H](NC(=O)CNC(=O)[C@H](CCC(=O)O)NC(=O)[C@@H](C)NC(=O)[C@@H](N)Cc1ccc(O)cc1)[C@@H](C)O)[C@@H](C)CC)C(=O)N[C@@H](C)C(=O)N[C@@H](CCSC)C(=O)N[C@@H](CC(=O)O)C(=O)N[C@@H](CCCCN)C(=O)N[C@H](C(=O)N[C@@H](Cc1c[nH]cn1)C(=O)N[C@@H](CCC(N)=O)C(=O)N[C@@H](CCC(N)=O)C(=O)N[C@@H](CC(=O)O)C(=O)N[C@@H](Cc1ccccc1)C(=O)N[C@H](C(=O)N[C@@H](CC(N)=O)C(=O)N[C@@H](Cc1c[nH]c2ccccc12)C(=O)N[C@@H](CC(C)C)C(=O)N[C@@H](CC(C)C)C(=O)N[C@@H](C)C(=O)N[C@@H](CCC(N)=O)C(=O)N[C@@H](CCCCN)C(=O)N1CCC[C@H]1C(=O)N[C@@H](CCCCN)C(=O)NCC(=O)N[C@@H](CCCCN)C(=O)NCC(=O)N[C@@H](CCCCN)C(=O)N[C@@H](CO)C(N)=O)C(C)C)[C@@H](C)CC` [0601GIP4700], -6%, AUC240; for `CC[C@H](C)[C@H](NC(=O)[C@H](CO)NC(=O)[C@H](Cc1ccc(O)cc1)NC(=O)[C@H](CC(=O)O)NC(=O)[C@H](CO)NC(=O)[C@@H](NC(=O)[C@H](Cc1ccccc1)NC(=O)[C@@H](NC(=O)CNC(=O)[C@H](CCC(=O)O)NC(=O)[C@@H](C)NC(=O)[C@@H](N)Cc1ccc(O)cc1)[C@@H](C)O)[C@@H](C)CC)C(=O)N[C@@H](C)C(=O)N[C@@H](CCSC)C(=O)N[C@@H](CC(=O)O)C(=O)N[C@@H](CCCCN)C(=O)N[C@H](C(=O)N[C@@H](Cc1c[nH]cn1)C(=O)N[C@@H](CCC(N)=O)C(=O)N[C@@H](CCC(N)=O)C(=O)N[C@@H](CC(=O)O)C(=O)N[C@@H](Cc1ccccc1)C(=O)N[C@H](C(=O)N[C@@H](CC(N)=O)C(=O)N[C@@H](Cc1c[nH]c2ccccc12)C(=O)N[C@@H](CC(C)C)C(=O)N[C@@H](CC(C)C)C(=O)N[C@@H](C)C(=O)N[C@@H](CCC(N)=O)C(=O)N[C@@H](CCCCN)C(=O)N1CCC[C@H]1C(=O)N[C@@H](CO)C(=O)N[C@@H](CCCCN)C(=O)N[C@@H](CCC(=O)O)C(=O)N[C@H](C(=O)N[C@H](C(=O)N[C@@H](CO)C(N)=O)[C@@H](C)CC)[C@@H](C)CC)C(C)C)[C@@H](C)CC` [Compound 0601GIP4234], -11%, AUC240.
Turning to `CC[C@H](C)[C@H](NC(=O)[C@H](CO)NC(=O)[C@H](Cc1ccc(O)cc1)NC(=O)[C@H](CC(=O)O)NC(=O)[C@H](CO)NC(=O)[C@@H](NC(=O)[C@H](Cc1ccccc1)NC(=O)[C@@H](NC(=O)CNC(=O)[C@H](CCC(=O)O)NC(=O)[C@@H](C)NC(=O)[C@@H](N)Cc1ccc(O)cc1)[C@@H](C)O)[C@@H](C)CC)C(=O)N[C@@H](C)C(=O)N[C@@H](CCSC)C(=O)N[C@@H](CC(=O)O)C(=O)N[C@@H](CCCCN)C(=O)N[C@H](C(=O)N[C@@H](Cc1c[nH]cn1)C(=O)N[C@@H](CCC(N)=O)C(=O)N[C@@H](CCC(N)=O)C(=O)N[C@@H](CC(=O)O)C(=O)N[C@@H](Cc1ccccc1)C(=O)N[C@H](C(=O)N[C@@H](CC(N)=O)C(=O)N[C@@H](Cc1c[nH]c2ccccc12)C(=O)N[C@@H](CC(C)C)C(=O)N[C@@H](CC(C)C)C(=O)N[C@@H](C)C(=O)N[C@@H](CCC(N)=O)C(=O)N[C@@H](CCCCN)C(=O)N[C@H](C(=O)N[C@@H](CO)C(=O)N1CCC[C@H]1C(=O)N[C@@H](CCCNC(=N)N)C(=O)N1CCC[C@H]1C(=O)N1CCC[C@H]1C(=O)N[C@@H](CO)C(N)=O)[C@@H](C)O)C(C)C)[C@@H](C)CC` [Compound 0601GIP4236], the “Basal Glucose Lowering at 80 nmol/Kg” value in assay [1] is reported as -12%,.
On to “CSNLSTCVLGKLSQELHKLQTYPRTNTGSGTP [Salmon calcitonin]”, for which the “EC(50)” value in assay [2] (conscious rats ~200g) is 0.19 µg; in assay [2] (conscious rats), 0.28 nmol/kg.
Take “Gastrin releasing peptide: peptide compared for inhibition of gastric emptying in conscious rats (VPLPAGGGTVLTKMYPRGNHWAVGHLM; ends and bridges not checked; UniProt P07492 24-50, looked up)”: the results for the “EC(50)” value in assay [2] (conscious rats ~200g) and in assay [2] (conscious rats) were 28.5 µg and 49.9 nmol/kg, respectively.
Turning to “KCNTATCATQRLANFLVHSSNNFGAILSSTNVGSNTY [Human amylin]”, the “EC(50)” value is 0.15 µg in assay [2] (conscious rats ~200g) and 0.19 nmol/kg in assay [2] (conscious rats).
For the molecule “PACAP38: pituitary adenylate cyclase activating peptide (HSDGIFTDSYSRYRKQMAVKKYLAAVLGKRYKQRVKNK-NH2; ends and bridges not checked; UniProt P18509 132-169, looked up)”, the “inhibition of gastric emptying” value in assay [2] (at doses of 100µg) is “weakly active or inactive”.
Regarding “Rat CGRP: peptide compared for inhibition of gastric emptying in conscious rats (SCNTATCVTHRLAGLLSRSGGVVKDNFVPTNVGSEAF; ends and bridges not checked; cysteine pairing not given here; UniProt P01256 83-119, looked up)”, the “EC(50)” value in assay [2] (conscious rats ~200g) was 1.62 µg; in assay [2] (conscious rats) it was 2.13 nmol/kg.

These data come from EP2057188B1 (priority 2006, dated 2008).
